Entries after “also recorded” stand apart in the source; their conditions may differ.
Tested on: motor neurons expressing G59S p150^glued
Assay: Motor neuron death from HSV-expressed mutant p150glued in spinal cord cultures
Assay type: cell-based, rat
Details: 6 days post-infection; treatment daily or every other day
Excerpt: Various cDNAs were cloned into the PrpUC amplicon plasmid and were used to generate recombinant HSV as previously described (Neve et al., 1997). The titer of viruses used in these studies were routinely 3-5×10^7 plaque-forming units/ml. The cDNA for wild type/mutant SOD and wild type/mutant p150^glued were gifts of D. Borchelt and E. Holzbaur, respectively. The K295R mutant version of chick src was a gift of J. Brugge.
Mutations in superoxide dismutase (SOD) or the p150^glued subunit of dynactin are known to account for a familial form of ALS in a subpopulation of individuals (Rosen, 1993; Puls et al., 2003; Bruijn et al., 2004). We inquired whether expression the mutant forms of SOD or p150^glued caused motor neuron death in vitro and if Trk antagonism was neuroprotective. Recombinant herpes simplex viruses (HSVs) were generated that expressed wild type or mutant form of SOD (G85R) and wild type or mutant p150^glued (G59S). […] Spinal cord cultures were infected with virus at 14 DIV and the number of motor neurons was determined 2, 4, 6 or 8 days later (FIG. 4, panel a.).
We next determined if KW6002 could protect motor neurons from the toxic effects of mutant proteins. Spinal cord cultures were infected with viruses expressing wild type or mutant versions of SOD or p150^glued at 14 DIV, then treated with drug or vehicle for 4 days (FIG. 4, panel b.). […]

CCCn1c(=O)[nH]c(=O)c2[nH]cnc21 [enprofylline, 3-propylxanthine]
motor neuron survival / toxicity of G59S p150glued: significantly greater number of motor neurons; also recorded: completely prevented the toxicity of mutant protein expression

Reference: patent US20070037833A1, “Compositions and methods for inhibiting neurodegeneration” (priority 2005, published 2007)
